Measured values from patent US4008323A, “Method of reducing cholesterol using certain aromatic keto acids” (Pierre Fabre S.A., priority 1974, dated 1977).
Like-named read-outs stand apart in the source and are kept apart here.

Columns and labels:
[1] = Solubility properties; assay type: physicochemical
[2] = Acute toxicity in mice, oral LD50 (method of Miller & Tainter); details: mouse, in vivo, mortality determined 48 hours after administration
Description: The chemical compounds previously described were submitted to toxicity tests. It was determined in mice by oral administration and was calculated in accordance with the method of MILLER & TAINTER. It is generally low and greater than 1000 mg/kg.

[3] = test system: carrageenin edema; assay: Carrageenin edema test in rats (antiinflammatory); assay type: in vivo; details: for change in vivo at 30 mg/kg / change in vivo at 50 mg/kg / change in vivo at 100 mg/kg / change in vivo at 200 mg/kg: Rattus norvegicus
Description: The antiinflammatory properties were shown by the carrageenin edema test in rats, the products having been administered orally 1 hour before the intrapodal injection of 0.05 ml of a 2% suspension of carrageenin; the volume of the rat's paw was measured by plethysmoscopy 3, 4 and 6 hours afterwards.
The experiment concerned for each lot […]; one lot of animals receiving only the vehicle (2 ml/100 g of Tween + water) which served for the administration of the products, constituted the control lot. The following table sets forth the results obtained: […]

[4] = test system: writhings induced by acetic acid; assay: Writhing test, acetic acid (analgetic); assay type: in vivo, male mouse; details: 200 mg/kg by mouth, t + 60 to t + 70 min
Description: The administration of the compounds is effected by mouth at the time t. […] The determination of the writhings is effected from t + 60 min. to t + 70 min. The vehicle used for the administration of the products is a 5% solution of Tween 80 in 0.9% NaCl which will serve as control.

[5] = test system: total blood cholesterol; assay: Total blood cholesterol in rats on a normal diet (hypocholesterolemizing); assay type: in vivo; details: 300 mg/kg oral, 4 consecutive days; 5th day, fasted 16 hours
Description: One lot of rats served as control.
The sampling was effected on the 5th day after 16 hours fasting, by cardiac puncture and the total blood cholesterol determination was effected by the Liebermann-Burchardt colorimetric method.

Structure (SMILES): C=C(CC(=O)c1ccc(-c2ccccc2Cl)cc1)C(=O)O [F 1379, 2-methylene 4-oxo 4-(4'-orthochlorophenylphenyl) butyric acid]
- Solubility in NN-dimethyl acetamide ([1]; dimethyl acetamide): 25%
- Solubility in dimethyl sulfoxide ([1]; dimethyl sulfoxide): 20%
- Solubility in ethyl alcohol ([1]; ethyl alcohol / ethanol / alcohol): 1%
- Solubility in water ([1]; water, in words, listed as Example 6): insoluble
- LD50 at 48 h [2]: 1500 mg/kg
- % increase in volume of the paw, cumulative (m) ([3]; 30 mg/kg oral): 179,6%
- Action, cumulative ([3]; 30 mg/kg oral): -11,7%
- % increase in volume of the paw, cumulative (m) ([3]; 50 mg/kg oral): 106,1%
- Action, cumulative ([3]; 50 mg/kg oral): -44,4%
- % increase in volume of the paw, cumulative (m) ([3]; 100 mg/kg oral): 83,6%
- Action, cumulative ([3]; 100 mg/kg oral): -56,2%
- % increase in volume of the paw, cumulative (m) ([3]; 200 mg/kg oral): 77,5%
- Action, cumulative ([3]; 200 mg/kg oral): -59,4%
- change in vivo at 30 mg/kg ([3]; 30 mg/kg oral, + 3 hrs, read-out: % increase in volume of the paw, mean (m)): 58.4%
- change in vivo at 30 mg/kg ([3]; 30 mg/kg oral, + 3 hrs, read-out: Action (variation of paw volume increase vs controls)): -17.6%
- change in vivo at 30 mg/kg ([3]; 30 mg/kg oral, + 4 hrs, read-out: % increase in volume of the paw, mean (m)): 60.1%
- change in vivo at 30 mg/kg ([3]; 30 mg/kg oral, + 4 hrs, read-out: Action (variation of paw volume increase vs controls)): -9.6%
- change in vivo at 30 mg/kg ([3]; 30 mg/kg oral, + 6 hrs, read-out: % increase in volume of the paw, mean (m)): 61.1%
- change in vivo at 30 mg/kg ([3]; 30 mg/kg oral, + 6 hrs, read-out: Action (variation of paw volume increase vs controls)): -7%
- change in vivo at 50 mg/kg ([3]; 50 mg/kg oral, + 3 hrs, read-out: % increase in volume of the paw, mean (m)): 24.4%
- change in vivo at 50 mg/kg ([3]; 50 mg/kg oral, + 3 hrs, read-out: Action (variation of paw volume increase vs controls)): -58.2%
- change in vivo at 50 mg/kg ([3]; 50 mg/kg oral, + 4 hrs, read-out: % increase in volume of the paw, mean (m)): 34.4%
- change in vivo at 50 mg/kg ([3]; 50 mg/kg oral, + 4 hrs, read-out: Action (variation of paw volume increase vs controls)): -47%
- change in vivo at 50 mg/kg ([3]; 50 mg/kg oral, + 6 hrs, read-out: % increase in volume of the paw, mean (m)): 47.4%
- change in vivo at 50 mg/kg ([3]; 50 mg/kg oral, + 6 hrs, read-out: Action (variation of paw volume increase vs controls)): -29.7%
- change in vivo at 100 mg/kg ([3]; 100 mg/kg oral, + 3 hrs, read-out: % increase in volume of the paw, mean (m)): 18.7%
- change in vivo at 100 mg/kg ([3]; 100 mg/kg oral, + 3 hrs, read-out: Action (variation of paw volume increase vs controls)): -67.9%
- change in vivo at 100 mg/kg ([3]; 100 mg/kg oral, + 4 hrs, read-out: % increase in volume of the paw, mean (m)): 26.1%
- change in vivo at 100 mg/kg ([3]; 100 mg/kg oral, + 4 hrs, read-out: Action (variation of paw volume increase vs controls)): -59.9%
- change in vivo at 100 mg/kg ([3]; 100 mg/kg oral, + 6 hrs, read-out: % increase in volume of the paw, mean (m)): 38.8%
- change in vivo at 100 mg/kg ([3]; 100 mg/kg oral, + 6 hrs, read-out: Action (variation of paw volume increase vs controls)): -42.5%
- change in vivo at 200 mg/kg ([3]; 200 mg/kg oral, + 3 hrs, read-out: % increase in volume of the paw, mean (m)): 19.6%
- change in vivo at 200 mg/kg ([3]; 200 mg/kg oral, + 3 hrs, read-out: Action (variation of paw volume increase vs controls)): -66.4%
- change in vivo at 200 mg/kg ([3]; 200 mg/kg oral, + 4 hrs, read-out: % increase in volume of the paw, mean (m)): 25.1%
- change in vivo at 200 mg/kg ([3]; 200 mg/kg oral, + 4 hrs, read-out: Action (variation of paw volume increase vs controls)): -61.3%
- change in vivo at 200 mg/kg ([3]; 200 mg/kg oral, + 6 hrs, read-out: % increase in volume of the paw, mean (m)): 32.8%
- change in vivo at 200 mg/kg ([3]; 200 mg/kg oral, + 6 hrs, read-out: Action (variation of paw volume increase vs controls)): -51.3%
- % Decrease (of writhings) [4]: 18,4%
- Mean No. of Writhings [4]: 31,8
- Total blood cholesterol, M [5]: 0,62
